Measurements: US11939379B2 (The Regents of the University of California, priority 2017, dated 2024)
“Also recorded” adds a separate entry of the source.

Legend:
BCL-xL/ABT-263 complex = molecular target: T1, BCL-xL/ABT-263 complex (Homo sapiens, UniProt Q07817); assay: Biolayer interferometry, Fab binding to BCL-xL in the presence of ABT-263; details: ABT-263 in place of ABT-737
T1 construct: C-terminally truncated BCL-xL (residues 2-215) with an N-terminal AviTag; made in house; host or cells: E. coli BL21(DE3), pMCSG7 vector
Protocol: Biolayer interferometery data were measured using an Octet RED384 instrument (ForteBio). Biotinylated BCL-xL was immobilized on a Streptavidin (SA) biosensor using a 200 nM solution. Serial dilutions of Fabs in kinetics buffer (PBS, pH 7.4, 0.05% Tween-20, 0.2% BSA, 10 μM biotin) with small molecule (1 μM), peptide (5 μM), or vehicle (0.05% DMSO) were used as analyte. Affinity (KD) and kinetic parameters (kon and koff) were calculated from a global fit (1:1) of the data using the Octet RED384 software.

[1] = tested on: AbCID CAR (BCL-xL) Jurkat NFAT reporter cells co-cultured with K562 target cells; assay: Quantification of CAR T-cell activation (NFAT-GFP, CD69, IL-2); format: cell-based; details: for NFAT-dependent GFP reporter expression / IL-2 secretion / CD69 expression: antibody 5 nM, 20 hours
Protocol: Jurkat cells expressing CARs were mixed with antigen positive (CD19^+) or antigen negative (CD19^−) K562 target cells at a ratio of 1:2. […] After overnight incubation at 37° C., cells were pelleted by centrifugation. NFAT-dependent GFP reporter expression was quantified by flow cytometry using a FACSCanto II (BD Biosciences). CD69 expression was quantified by immunofluorescence flow cytometry using a FACSCanto II (BD Biosciences) using an APC anti-human CD69 Antibody (Biolegend 310910). IL-2 secretion was quantified by collection of supernatants and analysis by ELISA using the BD Human IL-2 ELISA set as per manufacturer's protocol. All flow cytometry data analysis was performed using FlowJo software and all plots were generated using Prism software (GraphPad).

mice = details: mouse, in vivo; cited from earlier work
Jurkat cells = assay: Cellular toxicity of ABT-737, CellTiter-Glo; format: cell-based; details: 24 h, viability relative to DMSO, read-out: IC50 (cell death)
Protocol: (§1) W T Jurkat, AbCID CAR Jurkat, Conventional CAR Jurkat, WT K562, CD19^+ K562, and HEK293T cells were plated in 96-well plates at ˜5000 cells per well. Each cell line was incubated with varying concentrations of ABT-737 (10 μM initial, 3-fold serial-dilutions, 8 times) or DMSO alone (0.1%). After 24 h, cell viability was measured using a CellTiter-Glo® Luminescent Cell Viability Assay (Promega) and the manufacturer's standard protocol. The percent viability relative to DMSO treatment was plotted and analyzed for each cell line using Prism software (GraphPad).

K562 cells = assay: Cellular toxicity of ABT-737, CellTiter-Glo; format: cell-based; details: K562, 24 h, viability relative to DMSO; read-out: IC50 (cell death)
Protocol: as §1

HEK293T cells = assay: Cellular toxicity of ABT-737, CellTiter-Glo; format: cell-based; details: 24 h, viability relative to DMSO, read-out: IC50 (cell death)
Protocol: as §1

platelets = details: Zhang et al. 2007; cited from earlier work
[2] = tested on: scAZ1-VPR and dCas9-BCL-xL in reporter HEK293T cell line containing the Gal4-UAS-Fluc operon; assay: CRISPRa-mediated luciferase assay (scAZ1 AbCID gene circuit); format: cell-based
Protocol: For CRISPRa-mediated transcriptional activation, the reporter HEK293T cell line containing the Gal4-UAS-Fluc operon (Collaboration, O. R, Nat. Methods, 13:191-192 (2016)) was seeded at ˜0.5×10^6 cells/well in 6-well plates and cultured under 5% CO2 at 37° C. overnight. The cells were transfected with a plasmid encoding scAZ1-VPR and another plasmid encoding dCas9-BCL-xL and Gal4 sgRNA at a 1:1 ratio. The transfected cells were trypsinized and resuspended in fresh DMEM supplemented with 10% FBS 24 h after transfection. Cells were then aliquoted into a 96-well poly-D-lysine coated plate (Corning) and allowed to adhere for 24 h before 20 nM ABT-737 was added to induce CRISPRa activity. Cells were then further incubated for 48 h before evaluation of luciferase gene expression. To determine luciferase activity, cells were lysed with Bright-Glo Luciferase Assay substrate (Promega) and analyzed using an Infinite M200 PRO plate reader (Tecan). The luciferase activities were background-subtracted with a negative control (cells expressing full-length dCas9-VPR and PHOX2B negative-sgRNA), and normalized against a positive control (cells expressing full-length dCas9-VPR and Gal4 sgRNA). For investigation of cellular dose response, different concentrations of ABT-737 (0.014 nM, 0.041 nM, 0.12 nM, 0.37 nM, 1.1 nM, 3.3 nM, 10 nM, 30 nM, 90 nM, 270 nM) were added to the cells after cells were transfected and aliquoted to a 96-well plate.

[3] = tested on: T cells co-cultured with CD19+ K562 cells; assay: AbCID-regulated inducible bispecific T cell engager, T cell activation; format: cell-based; details: for T-cell activation, CD69 expression / T-cell activation, NFAT signaling (GFP expression): antibody conjugated to anti-CD19, Bcl-2 conjugated to anti-CD3, addition of ABT-199
Excerpt: A representative embodiment of an AbCID-regulated inducible bispecific T cell engager is shown in FIG. 19A, having a first AbCID component conjugated to an anti-CD3 antibody and a second AbCID component conjugated to an antibody that recognizes a tumor specific antigen. Administration of the small molecule dimerizer allows for generation of the CID complex, resulting in recruitment of T cells to cancer cells expressing the tumor specific antigen.

T1 sequence (Q07817 2-215, one chain of several): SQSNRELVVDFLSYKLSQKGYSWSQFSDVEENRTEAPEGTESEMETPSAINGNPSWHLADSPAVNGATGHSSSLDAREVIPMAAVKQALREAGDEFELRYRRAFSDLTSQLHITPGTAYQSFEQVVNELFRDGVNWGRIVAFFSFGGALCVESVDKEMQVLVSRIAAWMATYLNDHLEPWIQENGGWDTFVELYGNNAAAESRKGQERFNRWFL

## CC1(C)CCC(c2ccc(Cl)cc2)=C(CN2CCN(c3ccc(C(=O)NS(=O)(=O)c4ccc(N[C@H](CCN5CCOCC5)CSc5ccccc5)c(S(=O)(=O)C(F)(F)F)c4)cc3)CC2)C1 [ABT-263]
BCL-xL/ABT-263 complex
  formation of a dimer: does not result in the formation of a dimer

## CN(C)CC[C@H](CSc1ccccc1)Nc1ccc(S(=O)(=O)NC(=O)c2ccc(N3CCN(Cc4ccccc4-c4ccc(Cl)cc4)CC3)cc2)cc1[N+](=O)[O-] [ABT-737]
[1]
  concentration range used to induce AbCID CAR activity: < 100 nM
[1]; ABT-737 alone
  T-cell activation by ABT-737 on its own: not able to induce T-cell activation on its own
[1]; CD19+ K562 target cells
  NFAT-dependent GFP reporter expression: dose-dependent activation of the NFAT pathway
[1]; CD19+ K562 target cells, ELISA
  IL-2 secretion: dose-dependent secretion of IL-2
[1]; CD19+ K562 target cells, immunofluorescence flow cytometry
  CD69 expression: dose-dependent expression of CD69
[1]; CD19− K562 target cells
  CD69 expression: no expression was observed
  IL-2 secretion: no secretion was observed
  NFAT-dependent GFP reporter expression: not observed; also recorded: no activation was observed
mice
  tolerability in mice: generally well tolerated by mice, except for platelet toxicity
Jurkat cells
  IC50: ~2 µM
K562 cells
  IC50: > 10 µM
HEK293T cells
  IC50: ~10 µM
platelets
  concentration observed to be toxic to platelets: low μM
[2]
  concentration range used to induce CRISPRa activity: < 270 nM
[2]; 48-hour induction, AbCID-gated system, read-out: EC50 of induction of luciferase expression
  EC50: 0.0089 ± 0.001 µM
[2]; ABT-737 20 nM, 48 hours, Gal4 sgRNA
  luciferase expression: robust expression of luciferase
[2]; AbCID-gated system with a negative sgRNA
  luciferase expression with a negative sgRNA: no increase in luciferase expression

B1: AZ34: Fab clone selected against Bcl-2 + ABT-199 complex (antibody)
heavy: EISEVQLVESGGGLVQPGGSLRLSCAASGFNIYYSSMHWVRQAPGKGLEWVASISSYSGSTSYADSVKGRFTISADTSKNTAYLQMNSLRAEDTAVYYCARGGWFWGSGGYSSAFDYWGQGTLVTVSSASTKGPSVFPLAPSSKSTSGGTAALGCLVKDYFPEPVTVSWNSGALTSGVHTFPAVLQSSGLYSLSSVVTVPSSSLGTQTYICNVNHKPSNTKVDKKVEPKSCDKTHTGGSHHHHHH
light: SDIQMTQSPSSLSASVGDRVTITCRASQSVSSAVAWYQQKPGKAPKLLIYSASSLYSGVPSRFSGSRSGTDFTLTISSLQPEDFATYYCQQHHSLITFGQGTKVEIKRTVAAPSVFIFPPSDSQLKSGTASVVCLLNNFYPREAKVQWKVDNALQSGNSQESVTEQDSKDSTYSLSSTLTLSKADYEKHKVYACEVTHQGLSSPVTKSFNRGECGGSDYKDDDDK
[3]
  T-cell activation, CD69 expression: increased expression of CD69
  T-cell activation, NFAT signaling (GFP expression): activation of NFAT signaling

B2: AZ21: Fab clone selected against Bcl-2 + ABT-199 complex (antibody)
heavy: EISEVQLVESGGGLVQPGGSLRLSCAASGFNLSYSSMHWVRQAPGKGLEWVASISPYSSYTYYADSVKGRFTISADTSKNTAYLQMNSLRAEDTAVYYCARGYWSFYGMDYWGQGTLVTVSSASTKGPSVFPLAPSSKSTSGGTAALGCLVKDYFPEPVTVSWNSGALTSGVHTFPAVLQSSGLYSLSSVVTVPSSSLGTQTYICNVNHKPSNTKVDKKVEPKSCDKTHTGGSHHHHHH
light: SDIQMTQSPSSLSASVGDRVTITCRASQSVSSAVAWYQQKPGKAPKLLIYSASSLYSGVPSRFSGSRSGTDFTLTISSLQPEDFATYYCQQYYAHYLFTFGQGTKVEIKRTVAAPSVFIFPPSDSQLKSGTASVVCLLNNFYPREAKVQWKVDNALQSGNSQESVTEQDSKDSTYSLSSTLTLSKADYEKHKVYACEVTHQGLSSPVTKSFNRGECGGSDYKDDDDK
[3]
  T-cell activation, CD69 expression: increased expression of CD69
  T-cell activation, NFAT signaling (GFP expression): activation of NFAT signaling
[3]; titration of ABT-199
  level of T-cell activation (NFAT activation) versus ABT-199 concentration: tunable by titration of ABT-199 concentration

B3: AZ35: Fab clone selected against Bcl-2 + ABT-199 complex (antibody)
heavy: EISEVQLVESGGGLVQPGGSLRLSCAASGFNLYYSSIHWVRQAPGKGLEWVAYISSYSGYTYYADSVKGRFTISADTSKNTAYLQMNSLRAEDTAVYYCARGGWYWASGSYYGAMDYWGQGTLVTVSSASTKGPSVFPLAPSSKSTSGGTAALGCLVKDYFPEPVTVSWNSGALTSGVHTFPAVLQSSGLYSLSSVVTVPSSSLGTQTYICNVNHKPSNTKVDKKVEPKSCDKTHTGGSHHHHHH
light: SDIQMTQSPSSLSASVGDRVTITCRASQSVSSAVAWYQQKPGKAPKLLIYSASSLYSGVPSRFSGSRSGTDFTLTISSLQPEDFATYYCQQYGYSVLITFGQGTKVEIKRTVAAPSVFIFPPSDSQLKSGTASVVCLLNNFYPREAKVQWKVDNALQSGNSQESVTEQDSKDSTYSLSSTLTLSKADYEKHKVYACEVTHQGLSSPVTKSFNRGECGGSDYKDDDDK
[3]
  T-cell activation, CD69 expression: increased expression of CD69
  T-cell activation, NFAT signaling (GFP expression): activation of NFAT signaling
